Reference: patent publication US11173145B2, “Compounds useful as inhibitors of indoleamine 2,3-dioxygenase and/or tryptophan dioxygenase” (Board of Regents, The University of Texas System, priority 2017, dated 2021)

Key:
[1] = target: T1, IDO1 (Homo sapiens, UniProt P14902); assay: IDO1 cell-based assay (HeLa cells, IFNgamma-induced, N-formylkynurenine/L-tryptophan by RFMS); conditions: 10 ng/mL IFNgamma, 24 hours
T1 construct: endogenous in cells; host or cells: HeLa cells (ATCC), IFNgamma-induced
T1 sequence (P14902 whole entry): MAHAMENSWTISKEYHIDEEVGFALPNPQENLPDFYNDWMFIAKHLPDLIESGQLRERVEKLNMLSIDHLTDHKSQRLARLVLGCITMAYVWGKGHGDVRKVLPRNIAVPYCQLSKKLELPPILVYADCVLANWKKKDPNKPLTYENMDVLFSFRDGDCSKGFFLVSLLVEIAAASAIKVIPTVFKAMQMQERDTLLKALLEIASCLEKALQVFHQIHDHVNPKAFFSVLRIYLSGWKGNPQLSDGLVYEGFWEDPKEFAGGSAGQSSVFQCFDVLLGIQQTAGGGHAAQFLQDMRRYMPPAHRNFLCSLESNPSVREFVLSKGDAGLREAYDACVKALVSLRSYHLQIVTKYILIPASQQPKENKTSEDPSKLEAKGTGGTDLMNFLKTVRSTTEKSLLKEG
Outline: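 N-formylkynurenine and tryptophan peak areas in media measured by RFMS (C18, isocratic, d-Trp standard), giving IC50 values by regression. Source: HeLa cells incubated 24 h with IFNgamma (10 ng/mL) plus test compound at 0.5% DMSO; parallel CellTiter-Glo viability read.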

[2] = target: T2, mouse IDO1 (Mus musculus, UniProt P28776); assay: Mouse IDO1 cell-based assay (PANC02 cells, mouse IFNgamma-induced, N-formylkynurenine/L-tryptophan by RFMS); conditions: 30 ng/mL mouse IFNgamma, 48 hours
T2 construct: The murine PANC02 pancreatic ductal adenocarcinoma cell line was routinely maintained in DMEM media; endogenous in cells; host or cells: PANC02 murine pancreatic ductal adenocarcinoma cells, induced with mouse IFNgamma
T2 sequence (P28776 whole entry): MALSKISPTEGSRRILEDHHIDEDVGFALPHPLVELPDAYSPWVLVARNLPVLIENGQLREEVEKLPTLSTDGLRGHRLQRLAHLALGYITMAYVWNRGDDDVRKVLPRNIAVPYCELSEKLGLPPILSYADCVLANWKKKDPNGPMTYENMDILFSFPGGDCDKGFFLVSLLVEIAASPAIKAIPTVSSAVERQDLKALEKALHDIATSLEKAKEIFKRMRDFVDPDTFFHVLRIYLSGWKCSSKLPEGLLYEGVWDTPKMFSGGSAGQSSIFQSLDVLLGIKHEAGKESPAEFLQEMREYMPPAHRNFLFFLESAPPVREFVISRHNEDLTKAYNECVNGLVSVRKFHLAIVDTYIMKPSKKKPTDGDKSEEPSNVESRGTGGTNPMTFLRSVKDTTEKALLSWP

| IC50 [1] [µM] | IC50 [2] [µM] | SMILES |
| --- | --- | --- |
| > 5 | > 5 | CCC(NC(=O)c1ccc(Cl)cc1)[C@H]1[C@@H]2C[C@@H](NC(C(=O)O)c3ccccc3)C[C@@H]21 (stereo partly drawn) [Compound 217, 2-(((1R,3s,5S,6r)-6-(1-(4-chlorobenzamido)propyl)bicyclo[3.1.0]hexan-3-yl)amino)-2-phenylacetic acid] |
| < 0.2 | 0.5 to 2 | CCC(NC(=O)c1ccc(Cl)cc1)[C@H]1[C@@H]2C[C@@H](n3ncc4cccnc43)C[C@@H]21 (stereo partly drawn) [Compound 212, N-(1-((1R,3s,5S,6r)-3-(1H-pyrazolo[3,4-b]pyridin-1-yl)bicyclo[3.1.0]hexan-6-yl)propyl)-4-chlorobenzamide] |
| < 0.2 | < 0.5 | CCc1cnnn1[C@@H]1C[C@@H]2[C@H](C1)[C@H]2C(CC)NC(=O)c1ccc(Cl)cc1 (stereo partly drawn) [Compound 165, 4-chloro-N-(1-((1R,3s,5S,6r)-3-(5-ethyl-1H-1,2,3-triazol-1-yl)bicyclo[3.1.0]hexan-6-yl)propyl)benzamide] |
| < 0.2 | 2 to 5 | CCC(NC(=O)c1ccc(Cl)cc1)[C@H]1[C@@H]2C[C@@H](NC(=O)c3ccccn3)C[C@@H]21 (stereo partly drawn) [Compound 117, N-((1R,3s,5S,6r)-6-(1-(4-chlorobenzamido)propyl)bicyclo[3.1.0]hexan-3-yl)picolinamide] |
| < 0.2 | < 0.5 | C[C@H](NC(=O)c1ccc(C#N)cc1)[C@H]1[C@@H]2C[C@@H](Oc3ncnc4ccc(F)cc34)C[C@@H]21 [Compound 130, 4-cyano-N-((R)-1-((1R,3S,5S,6r)-3-((6-fluoroquinazolin-4-yl)oxy)bicyclo[3.1.0]hexan-6-yl)ethyl)benzamide] |
| 0.2 to 2 | 0.5 to 2 | CCC(NC(=O)c1ccc(Cl)cc1)[C@H]1[C@@H]2C[C@@H](NC(=O)c3ccc(OC)cn3)C[C@@H]21 (stereo partly drawn) [Compound 164, N-((1R,3s,5S,6r)-6-(1-(4-chlorobenzamido)propyl)bicyclo[3.1.0]hexan-3-yl)-5-methoxypicolinamide] |
| 0.2 to 2 | 0.5 to 2 | CCC(NC(=O)c1ccc(Cl)cc1)[C@H]1[C@@H]2C[C@@H](Oc3nc4cc(F)ccc4[nH]3)C[C@@H]21 (stereo partly drawn) [Compound 193, 4-chloro-N-(1-((1R,3s,5S,6r)-3-((6-fluoro-1H-benzo[d]imidazol-2-yl)oxy)bicyclo[3.1.0]hexan-6-yl)propyl)benzamide] |
| < 0.2 | > 5 | CCC(NC(=O)c1ccc(Cl)cc1)[C@H]1[C@@H]2C[C@@H](NC(=O)c3cccnc3C)C[C@@H]21 (stereo partly drawn) [Compound 223, N-((1R,3s,5S,6r)-6-(1-(4-chlorobenzamido)propyl)bicyclo[3.1.0]hexan-3-yl)-2-methylnicotinamide] |
| < 0.2 | 0.5 to 2 | CCC(NC(=O)c1ccc(Cl)cc1)[C@H]1[C@@H]2C[C@@H](N3Cc4ccccc4C3=O)C[C@@H]21 (stereo partly drawn) [Compound 175, 4-chloro-N-(1-((1R,3s,5S,6r)-3-(1-oxoisoindolin-2-yl)bicyclo[3.1.0]hexan-6-yl)propyl)benzamide] |
| < 0.2 | 0.5 to 2 | CCC(NC(=O)c1ccc(Cl)cc1)[C@H]1[C@@H]2C[C@@H](Nc3c([N+](=O)[O-])ccc(F)c3F)C[C@@H]21 (stereo partly drawn) [Compound 244, 4-chloro-N-(1-((1R,3s,5S,6r)-3-((2,3-difluoro-6-nitrophenyl)amino)bicyclo[3.1.0]hexan-6-yl)propyl)benzamide] |
| < 0.2 | 0.5 to 2 | CCC(NC(=O)c1ccc(Cl)cc1)[C@H]1[C@@H]2C[C@@H](NC(=O)c3ccc(F)cn3)C[C@@H]21 (stereo partly drawn) [Compound 144, N-((1R,3s,5S,6r)-6-(1-(4-chlorobenzamido)propyl)bicyclo[3.1.0]hexan-3-yl)-5-fluoropicolinamide] |
| < 0.2 | < 0.5 | CCC(NC(=O)c1ccc(Cl)cc1)[C@H]1[C@@H]2C[C@@H](C(C#N)c3ccccc3)C[C@@H]21 (stereo partly drawn) [Compound 166, 4-chloro-N-(1-((1R,3s,5 S,6r)-3-(cyano(phenyl)methyl)bicyclo[3.1.0]hexan-6-yl)propyl) benzamide] |
| < 0.2 | < 0.5 | CCC(NC(=O)c1ccc(Cl)cc1)[C@H]1[C@@H]2C[C@@H](n3ccc4cc(F)ccc43)C[C@@H]21 (stereo partly drawn) [Compound 229, 4-chloro-N-(1-((1R,3s,5S,6r)-3-(5-fluoro-1H-indol-1-yl)bicyclo[3.1.0]hexan-6-yl)propyl)benzamide] |
| 0.2 to 2 | > 5 | CCOC(=O)C(N[C@@H]1C[C@@H]2[C@H](C1)[C@H]2C(CC)NC(=O)c1ccc(Cl)cc1)c1ccccc1 (stereo partly drawn) [Compound 190, ethyl 2-(((1R,3s,5S,6r)-6-(1-(4-chlorobenzamido)propyl)bicyclo[3.1.0]hexan-3-yl)amino)-2-phenylacetate] |
| 2 to 5 | > 5 | CCC(NC(=O)c1ccc(Cl)cc1)[C@H]1[C@@H]2C[C@@H](n3cc(N)nn3)C[C@@H]21 (stereo partly drawn) [Compound 239, N-(1-((1R,3s,5S,6r)-3-(4-amino-1H-1,2,3-triazol-1-yl)bicyclo[3.1.0]hexan-6-yl)propyl)-4-chlorobenzamide] |
| < 0.2 | < 0.5 | CCC(NC(=O)c1ccc(Cl)cc1)[C@H]1[C@@H]2C[C@H](NC(=O)c3ccc(F)cn3)C[C@@H]21 (stereo partly drawn) [Compound 221, N-((1R,3r,5S,6r)-6-(1-(4-chlorobenzamido)propyl)bicyclo[3.1.0]hexan-3-yl)-5-fluoropicolinamide] |
| < 0.2 | 0.5 to 2 | CCC(NC(=O)c1ccc(Cl)cc1)[C@H]1[C@@H]2C[C@@H](NC(=O)N(C)c3ccccn3)C[C@@H]21 (stereo partly drawn) [Compound 189, 4-chloro-N-(1-((1R,3s, 5S, 6r)-3-(3-methyl-3-(pyridin-2-yl)ureido)bicyclo[3.1.0]hexan-6-yl)propyl)benzamide] |
| < 0.2 | 0.5 to 2 | CCC(NC(=O)c1ccc(Cl)cc1)[C@H]1[C@@H]2C[C@@H](n3cnc(-c4ccccc4)c3)C[C@@H]21 (stereo partly drawn) [Compound 200, 4-chloro-N-(1-((1R,3s,5S,6r)-3-(4-phenyl-1H-imidazol-1-yl)bicyclo[3.1.0]hexan-6-yl)propyl)benzamide] |
| > 5 | > 5 | O=C(Nc1ccc(Cl)cc1)[C@@H]1[C@@H]2CN(c3ncnc4ccc(F)cc34)C[C@@H]21 [Compound 250, (1R,5S,6s)-N-(4-chlorophenyl)-3-(6-fluoroquinazolin-4-yl)-3-azabicyclo[3.1.0]hexane-6-carboxamide] |
| < 0.2 | < 0.5 | CCC(NC(=O)c1ccc(Cl)cc1)[C@H]1[C@@H]2C[C@@H](n3cc4ccc(F)cc4n3)C[C@@H]21 (stereo partly drawn) [Compound 163, 4-chloro-N-(1-((1R,3s,5S,6r)-3-(6-fluoro-2H-indazol-2-yl)bicyclo[3.1.0]hexan-6-yl)propyl)benzamide] |
| < 0.2 | 2 to 5 | CCC(NC(=O)c1ccc(Cl)cc1)[C@H]1[C@@H]2C[C@@H](n3ccnc3C)C[C@@H]21 (stereo partly drawn) [Compound 201, 4-chloro-N-(1-((1R,3s,5S,6r)-3-(2-methyl-1H-imidazol-1-yl)bicyclo[3.1.0]hexan-6-yl)propyl)benzamide] |
| < 0.2 | 0.5 to 2 | CCC(NC(=O)c1ccc(Cl)cc1)[C@H]1[C@@H]2C[C@@H](NC(=O)c3ncc(F)cc3F)C[C@@H]21 (stereo partly drawn) [Compound 171, N-((1R,3s,5S,6r)-6-(1-(4-chlorobenzamido)propyl)bicyclo[3.1.0]hexan-3-yl)-3,5-difluoropicolinamide] |
| < 0.2 | < 0.5 | CCOCc1cn([C@H]2C[C@@H]3[C@H](C2)[C@H]3C(CC)NC(=O)c2ccc(Cl)cc2)nn1 (stereo partly drawn) [Compound 216, 4-chloro-N-(1-((1R,3r,5S,6r)-3-(4-(ethoxymethyl)-1H-1,2,3-triazol-1-yl)bicyclo[3.1.0]hexan-6-yl)propyl)benzamide] |
| 0.2 to 2 | 2 to 5 | CCC(NC(=O)c1ccc(Cl)cc1)[C@H]1[C@@H]2C[C@@H](n3ncnc3C3CC3)C[C@@H]21 (stereo partly drawn) [Compound 258, 4-chloro-N-(1-((1R,3s,5S,6r)-3-(5-cyclopropyl-1H-1,2,4-triazol-1-yl)bicyclo[3.1.0]hexan-6-yl)propyl)benzamide] |
| 0.2 to 2 | 2 to 5 | CCC(NC(=O)c1ccc(Cl)cc1)[C@@H]1[C@H]2C=C(c3ncnc4cc(F)ccc34)C[C@H]21 (stereo partly drawn) [Compound 255, 4-chloro-N-(1-((1R,5R,6S)-3-(7-fluoroquinazolin-4-yl)bicyclo[3.1.0]hex-2-en-6-yl)propyl)benzamide] |
| > 5 | > 5 | O=C(NCc1ccc(Cl)cc1)[C@@H]1[C@@H]2CN(c3ncnc4ccc(F)cc34)C[C@@H]21 [Compound 249, (1R,5S,6s)-N-(4-chlorobenzyl)-3-(6-fluoroquinazolin-4-yl)-3-azabicyclo[3.1.0]hexane-6-carboxamide] |
| < 0.2 | 0.5 to 2 | CCC(NC(=O)c1ccc(Cl)cc1)[C@H]1[C@@H]2C[C@@H](n3cnc(C4CC4)c3)C[C@@H]21 (stereo partly drawn) [Compound 261, 4-chloro-N-(1-((1R,3s, 5S, 6r)-3-(4-cyclopropyl-1H-imidazol-1-yl)bicyclo[3.1.0]hexan-6-yl)propyl)benzamide] |
| > 5 | > 5 | CCC(NC(=O)c1ccc(Cl)cc1)[C@H]1[C@@H]2C[C@@H](n3cc(C4CNC4)nn3)C[C@@H]21 (stereo partly drawn) [Compound 237, N-(1-((1R,3s,5S,6r)-3-(4-(azetidin-3-yl)-1H-1,2,3-triazol-1-yl)bicyclo[3.1.0]hexan-6-yl)propyl)-4-chlorobenzamide] |
| 0.2 to 2 | 0.5 to 2 | CCC(NC(=O)c1ccc(Cl)cc1)[C@H]1[C@@H]2C[C@H](n3nncc3C3CC3)C[C@@H]21 (stereo partly drawn) [Compound 191, 4-chloro-N-(1-((1R,3r,5S,6r)-3-(5-cyclopropyl-1H-1,2,3-triazol-1-yl)bicyclo[3.1.0]hexan-6-yl)propyl)benzamide] |
